Results on one compound are retold here after PMC7116001 (Science (New York, N.Y.), 2020).

This test deals with T1, S. acidocaldarius 20S proteasome (Saci_0613/Saci_0662ΔN/Saci_0909ΔN) (Sulfolobus acidocaldarius, UniProt Q4JAA8).
T1 sequence (Q4JAA8 11-203): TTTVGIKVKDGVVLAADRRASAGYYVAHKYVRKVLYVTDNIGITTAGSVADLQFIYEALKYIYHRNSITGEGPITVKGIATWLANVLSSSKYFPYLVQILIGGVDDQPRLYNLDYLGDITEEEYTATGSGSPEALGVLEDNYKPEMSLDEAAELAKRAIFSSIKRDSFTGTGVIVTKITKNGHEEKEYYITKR
T1 sequence (Q4JB24 1-242 partner): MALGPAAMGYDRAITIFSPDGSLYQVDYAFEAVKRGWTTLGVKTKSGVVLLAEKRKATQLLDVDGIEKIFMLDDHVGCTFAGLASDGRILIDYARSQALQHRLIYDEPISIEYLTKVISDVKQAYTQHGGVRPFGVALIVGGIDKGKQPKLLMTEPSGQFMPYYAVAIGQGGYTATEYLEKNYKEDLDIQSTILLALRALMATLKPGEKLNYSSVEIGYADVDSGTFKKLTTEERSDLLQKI
T1 sequence (Q4JAY3 7-195 partner): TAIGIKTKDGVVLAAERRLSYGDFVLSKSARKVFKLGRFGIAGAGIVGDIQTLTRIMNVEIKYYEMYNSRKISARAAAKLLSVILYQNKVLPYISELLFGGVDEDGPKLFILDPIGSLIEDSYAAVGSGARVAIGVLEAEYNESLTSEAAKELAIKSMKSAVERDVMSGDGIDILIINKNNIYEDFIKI
The experiment in a line: degradation of Urm1. It counts as biochemical. The note with it: substrate 3xUrm1-GFP; covalent (reversible boronate on Thr1, modelled).

Structures are written as SMILES.

Consider `CC(C)C[C@H](NC(=O)[C@H](Cc1ccccc1)NC(=O)c1cnccn1)B(O)O` [bortezomib], for which the “rate of substrate degradation” value is “with different concentrations of inhibitor, the rate of substrate degradation was diminished”.
